# Measured values: patent US8592629B2, “Sulfonamide derivatives as Nav 1.7 inhibitors” (Pfizer Limited, priority 2010, dated 2013)
# Where a name gives a salt, the structure may show the parent alone.
# Target: T1, Nav1.7 (or SCN9A) channel (Homo sapiens, UniProt Q15858)
# T1 construct: expressed in transfected cells
# Assay: Nav1.7 (hSCN9A) block in HEK cells, PatchXpress 7000 automated electrophysiology, estimated IC50 (EIC50)
# Type: cell-based
# Conditions: PatchXpress assay; HEK cells stably transfected with hSCN9A, voltage-clamped at V1/2 of inactivation
# Procedure: The ability of the compounds of formula (I) to block the Nav1.7 (or SCN9A) channel were measured using the assay described below.
# Human Embryonic Kidney (HEK) cells were transfected with an hSCN9A construct using lipofectamine reagent (Invitrogen), using standard techniques. Cells stably expressing the hSCN9A constructs were identified by their resistance to G-418 (400 μg/ml). Clones were screened for expression using the whole-cell voltage-clamp technique.
# HEK cells stably transfected with hSCN9A were maintained in DMEM medium supplemented with 10% heat-inactivated fetal bovine serum and 400 μg/ml G-418 in an incubator at 37° C. with a humidified atmosphere of 10% CO2. For HTS, cells were harvested from flasks by trypsinization and replated in an appropriate multi-well plate (typically 96 or 384 wells/plate) such that confluence would be achieved within 24 hours of plating. For electrophysiological studies, cells were removed from the culture flask by brief trypsinization and re-plated at low density onto glass cover slips. Cells were typically used for electrophysiological experiments within 24 to 72 hours after plating.
# HEK cells stably transfected with hSCN9A were viewed under Hoffman contrast optics and placed in front of an array of flow pipes emitting either control or compound-containing extracellular solutions. All compounds were dissolved in dimethyl sulfoxide to make 10 mM stock solutions, which were then diluted into extracellular solution to attain the final concentrations desired. […] The voltage-dependence of inactivation was determined by applying a series of depolarizing prepulses (8 sec long in 10 mV increments) from a negative holding potential. The voltage was then immediately stepped to 0 mV to assess the magnitude of the sodium current. Currents elicited at 0 mV were plotted as a function of prepulse potential to allow estimation of the voltage at which 50% of the channels were inactivated (midpoint of inactivation or V1/2). Compounds were tested for their ability to inhibit hSCN9A sodium channels by activating the channel with a 20 msec voltage step to 0 mV following an 8 second conditioning prepulse to the empirically determined V1/2. Compound effect (% inhibition) was determined by difference in current amplitude before and after application of test compounds. For ease of comparison, “estimated IC-50” (EIC50) values were calculated from single point electrophysiology data by the following equation, (tested concentration, uM) X (100-% inhibition/% inhibition). Inhibition values <20% and >80% were excluded from the calculation.
# Electrophysiological assays were conducted with PatchXpress 7000 hardware and associated software (Molecular Devices Corp). All assay buffers and solutions were identical to those used in conventional whole-cell voltage clamp experiments described above. hSCN9A cells were grown as above to 50%-80% confluency and harvested by trypsinization. Trypsinized cells were washed and resuspended in extracellular buffer at a concentration of 1×10^6 cells/ml. The onboard liquid handling facility of the PatchXpress was used for dispensing cells and application of test compounds. Determination of the voltage midpoint of inactivation was as described for conventional whole-cell recordings. Cells were then voltage-clamped to the empirically determined V1/2 and current was activated by a 20 msec voltage step to 0 mV.
# Compounds of the Examples were tested in the assays described above and found to have the Nav1.7 EIC50 (μM) values specified in the table below. All data are derived from the PatchXpress assay unless explicitly stated otherwise.
# T1 sequence (Q15858 whole entry): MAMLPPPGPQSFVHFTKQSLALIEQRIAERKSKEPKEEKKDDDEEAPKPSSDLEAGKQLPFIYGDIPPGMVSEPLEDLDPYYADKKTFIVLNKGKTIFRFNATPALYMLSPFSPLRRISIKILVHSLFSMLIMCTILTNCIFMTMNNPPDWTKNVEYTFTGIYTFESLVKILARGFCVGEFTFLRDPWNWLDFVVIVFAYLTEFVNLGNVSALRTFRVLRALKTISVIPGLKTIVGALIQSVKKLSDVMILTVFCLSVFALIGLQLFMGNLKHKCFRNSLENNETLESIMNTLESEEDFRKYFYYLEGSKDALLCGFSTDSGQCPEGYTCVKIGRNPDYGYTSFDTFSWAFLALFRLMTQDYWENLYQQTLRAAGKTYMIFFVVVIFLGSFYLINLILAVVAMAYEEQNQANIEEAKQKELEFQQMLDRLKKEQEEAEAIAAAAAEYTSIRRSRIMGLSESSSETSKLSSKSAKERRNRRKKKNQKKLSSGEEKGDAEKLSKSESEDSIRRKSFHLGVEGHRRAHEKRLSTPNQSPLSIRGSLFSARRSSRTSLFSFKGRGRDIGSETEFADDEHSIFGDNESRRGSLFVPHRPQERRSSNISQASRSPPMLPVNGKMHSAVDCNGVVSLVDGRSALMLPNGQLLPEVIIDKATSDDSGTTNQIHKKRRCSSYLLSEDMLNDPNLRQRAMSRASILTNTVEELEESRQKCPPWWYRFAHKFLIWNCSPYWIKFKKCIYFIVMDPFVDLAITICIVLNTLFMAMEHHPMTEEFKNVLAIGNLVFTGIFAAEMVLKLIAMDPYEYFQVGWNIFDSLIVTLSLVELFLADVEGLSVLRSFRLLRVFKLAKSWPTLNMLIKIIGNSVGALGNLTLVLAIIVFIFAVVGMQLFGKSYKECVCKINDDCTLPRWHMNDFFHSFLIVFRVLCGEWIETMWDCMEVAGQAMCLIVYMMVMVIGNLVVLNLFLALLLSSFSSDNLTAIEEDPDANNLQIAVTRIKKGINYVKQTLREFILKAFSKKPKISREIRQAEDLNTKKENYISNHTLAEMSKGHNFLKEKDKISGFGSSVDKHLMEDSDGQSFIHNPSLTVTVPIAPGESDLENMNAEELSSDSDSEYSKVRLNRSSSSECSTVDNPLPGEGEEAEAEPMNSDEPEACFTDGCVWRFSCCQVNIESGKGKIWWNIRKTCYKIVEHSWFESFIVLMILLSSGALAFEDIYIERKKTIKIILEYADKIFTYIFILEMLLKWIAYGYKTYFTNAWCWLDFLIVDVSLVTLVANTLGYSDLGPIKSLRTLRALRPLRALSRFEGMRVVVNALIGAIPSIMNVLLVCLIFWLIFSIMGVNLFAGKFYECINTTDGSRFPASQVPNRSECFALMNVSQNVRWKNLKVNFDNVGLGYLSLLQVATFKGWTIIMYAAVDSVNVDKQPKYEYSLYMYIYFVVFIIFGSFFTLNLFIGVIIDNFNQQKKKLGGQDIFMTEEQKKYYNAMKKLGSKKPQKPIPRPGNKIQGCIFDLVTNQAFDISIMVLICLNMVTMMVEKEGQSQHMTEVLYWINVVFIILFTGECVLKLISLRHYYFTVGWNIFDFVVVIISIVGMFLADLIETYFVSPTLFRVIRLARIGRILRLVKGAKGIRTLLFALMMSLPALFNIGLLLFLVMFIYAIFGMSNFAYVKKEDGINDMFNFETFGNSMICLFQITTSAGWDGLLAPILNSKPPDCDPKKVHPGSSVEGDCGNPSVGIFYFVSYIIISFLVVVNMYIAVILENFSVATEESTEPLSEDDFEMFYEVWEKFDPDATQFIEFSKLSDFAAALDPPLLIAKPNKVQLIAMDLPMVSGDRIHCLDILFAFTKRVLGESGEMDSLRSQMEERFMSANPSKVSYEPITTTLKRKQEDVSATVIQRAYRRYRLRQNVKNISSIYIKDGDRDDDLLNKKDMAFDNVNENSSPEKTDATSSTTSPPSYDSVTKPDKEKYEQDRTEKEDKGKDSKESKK
row,SMILES,IC50 [nM]
1,"[2H]C(C)(C)Oc1ncc(Oc2cc(F)c(C(=O)NS(C)(=O)=O)cc2Cl)cc1Cl (single isomer, unassigned) [Example 46, 5-chloro-4-({5-chloro-6-[2-d1-propan-2-yloxy]pyridin-3-yl}oxy)-2-fluoro-N-(methylsulfonyl)benzamide]",110
2,"CN(c1ncc(Oc2cc(F)c(C(=O)NS(C)(=O)=O)cc2F)cc1Cl)C1CC1 [Example 116, 4-({5-chloro-6-[cyclopropyl(methyl)amino]pyridin-3-yl}oxy)-2,5-difluoro-N-(methylsulfonyl)benzamide]",980
3,"CS(=O)(=O)NC(=O)c1cc(F)c(Oc2cnc(OCC3CC3)c(Cl)c2)cc1F [Example 35, 4-{[5-chloro-6-(cyclopropylmethoxy)pyridin-3-yl]oxy}-2,5-difluoro-N-(methylsulfonyl)benzamide]",41
4,"CS(=O)(=O)NC(=O)c1cc(Cl)c(Oc2cnc(C3CC(F)(F)C3)c(Cl)c2)cc1F [Example 109, 5-chloro-4-{[5-chloro-6-(3,3-difluorocyclobutyl)pyridin-3-yl]oxy}-2-fluoro-N-(methylsulfonyl)benzamide]",97
5,"CS(=O)(=O)NC(=O)c1cc(F)c(Oc2ncccc2C(F)(F)F)cc1F [Example 182, 2,5-difluoro-N-(methylsulfonyl)-4-{[3-(trifluoromethyl)pyridin-2-yl]oxy}benzamide]",> 3000
6,"CC(C)(O)c1ncc(Oc2cc(F)c(C(=O)NS(C)(=O)=O)cc2Cl)cc1Cl [Example 48, 5-chloro-4-{[5-chloro-6-(1-hydroxy-1-methylethyl)pyridin-3-yl]oxy}-2-fluoro-N-(methylsulfonyl)benzamide]",3500
7,"Cc1nc2ccccc2nc1Oc1cc(F)c(C(=O)NS(C)(=O)=O)cc1F [Example 187, 2,5-difluoro-4-[(3-methylquinoxalin-2-yl)oxy]-N-(methylsulfonyl)benzamide]",> 3000
8,"COc1ccncc1Oc1cc(F)c(C(=O)NS(C)(=O)=O)cc1F [Example 89, 2,5-difluoro-4-(4-methoxypyridin-3-yloxy)-N-(methylsulfonyl)benzamide]",> 3000
9,"CS(=O)(=O)NC(=O)c1cc(F)c(Oc2ccc(Cl)cn2)cc1F [Example 184, 4-[(5-chloropyridin-2-yl)oxy]-2,5-difluoro-N-(methylsulfonyl)benzamide]",4400
10,"COc1ncc(Oc2cc(F)c(C(=O)NS(=O)(=O)C3CC3)cc2F)cc1Cl [Example 15, 4-(5-Chloro-6-methoxypyridin-3-yloxy)-N-(cyclopropylsulfonyl)-2,5-difluorobenzamide diethylamine salt]",4600
11,"COC(C)(C)CNc1ncc(Oc2cc(F)c(C(=O)NS(C)(=O)=O)cc2F)cc1Cl [Example 122, 4-({5-chloro-6-[(2-methoxy-2-methylpropyl)amino]pyridin-3-yl}oxy)-2,5-difluoro-N-(methylsulfonyl)benzamide]",250
12,"CS(=O)(=O)NC(=O)c1cc(Cl)c(Oc2cnc(OC(C(F)(F)F)C(F)(F)F)c(Cl)c2)cc1F [Example 77, 5-chloro-4-({5-chloro-6-[2,2,2-trifluoro-1-(trifluoromethyl)ethoxy]pyridin-3-yl}oxy)-2-fluoro-N-(methylsulfonyl)benzamide]",15
13,"CS(=O)(=O)NC(=O)c1cc(F)c(Oc2cnc(N3CCCCC3)c(Cl)c2)cc1F [Example 142, 4-[(5-chloro-6-piperidin-1-ylpyridin-3-yl)oxy]-2,5-difluoro-N-(methylsulfonyl)benzamide]",170
14,"CS(=O)(=O)NC(=O)c1cc(Cl)c(Cc2cnc(C3CC3)c(Cl)c2)cc1F [Example 93, 5-chloro-4-((5-chloro-6-cyclopropylpyridin-3-yl)methyl)-2-fluoro-N-(methylsulfonyl)benzamide]",470
15,"[2H]C([2H])([2H])C([2H])(Oc1ncc(Oc2cc(F)c(C(=O)NS(C)(=O)=O)cc2Cl)cc1Cl)C([2H])([2H])[2H] (single isomer, unassigned) [Example 42, 5-chloro-4-({5-chloro-6-[d7-propan-2-yloxy]pyridin-3-yl}oxy)-2-fluoro-N-(methylsulfonyl)benzamide]",31
16,"CC(F)(F)Oc1cc(Oc2cc(F)c(C(=O)NS(C)(=O)=O)cc2Cl)cnc1C1CC1 [Example 104, 5-chloro-4-(6-cyclopropyl-5-(1,1-difluoroethoxy)pyridin-3-yloxy)-2-fluoro-N-(methylsulfonyl)benzamide hydrochloride salt]",67
17,"CS(=O)(=O)NC(=O)c1cc(F)c(Oc2cnc(OCCC(F)(F)F)c(Cl)c2)cc1F [Example 62, 4-{[5-chloro-6-(3,3,3-trifluoropropoxy)pyridin-3-yl]oxy}-2,5-difluoro-N-(methylsulfonyl)benzamide]",240
18,"CS(=O)(=O)NC(=O)c1cc(F)c(Oc2cnc(OCC(F)(F)F)c(Cl)c2)cc1F [Example 27, 4-{[5-chloro-6-(2,2,2-trifluoroethoxy)pyridin-3-yl]oxy}-2,5-difluoro-N-(methylsulfonyl)benzamide]",220
19,"CS(=O)(=O)NC(=O)c1cc(Cl)c(Oc2cnc(OCC(F)(F)C(F)(F)F)c(Cl)c2)cc1F [Example 56, 5-chloro-4-{[5-chloro-6-(2,2,3,3,3-pentafluoropropoxy)pyridin-3-yl]oxy}-2-fluoro-N-(methylsulfonyl)benzamide]",13
20,"CCN(CC)c1ncc(Oc2cc(F)c(C(=O)NS(C)(=O)=O)cc2F)cc1Cl [Example 150, 4-{[5-chloro-6-(diethylamino)pyridin-3-yl]oxy}-2,5-difluoro-N-(methylsulfonyl)benzamide]",220
21,"CS(=O)(=O)NC(=O)c1ccc(Nc2cnc(OC(C(F)(F)F)C(F)(F)F)c(Cl)c2)cc1 [Example 103, 4-(5-chloro-6-(1,1,1,3,3,3-hexafluoropropan-2-yloxy)Pyridin-3-ylamino)-N-(methylsulfonyl)benzamide]",400
22,"CC(C)(Oc1ncc(Oc2cc(F)c(C(=O)NS(C)(=O)=O)cc2Cl)cc1Cl)C(F)(F)F [Example 76, 5-chloro-4-{[5-chloro-6-(2,2,2-trifluoro-1,1-dimethylethoxy)pyridin-3-yl]oxy}-2-fluoro-N-(methylsulfonyl)benzamide]",9.4
23,"CS(=O)(=O)NC(=O)c1cc(Cl)c(Oc2cnc(OC(CF)CF)c(Cl)c2)cc1F [Example 53, 5-chloro-4-({5-chloro-6-[2-fluoro-1-(fluoromethyl)ethoxy]pyridin-3-yl}oxy)-2-fluoro-N-(methylsulfonyl)benzamide]",260
24,"CN(CC1CC1)c1ncc(Oc2cc(F)c(C(=O)NS(C)(=O)=O)cc2F)cc1Cl [Example 141, 4-({5-chloro-6-[(cyclopropylmethyl)(methyl)amino]pyridin-3-yl}oxy)-2,5-difluoro-N-(methylsulfonyl)benzamide]",270
25,"CO[C@@H]1CCCN(c2ncc(Oc3cc(F)c(C(=O)NS(C)(=O)=O)cc3F)cc2Cl)C1 [Example 128, 4-({5-chloro-6-[(3R)-3-methoxypiperidin-1-yl]pyridin-3-yl}oxy)-2,5-difluoro-N-(methylsulfonyl)benzamide]",2400
26,"CS(=O)(=O)NC(=O)c1cc(F)c(Oc2cc(Cl)cc3cccnc23)cc1F [Example 88, 4-[(6-chloroquinolin-8-yl)oxy]-2,5-difluoro-N-(methylsulfonyl)benzamide]",> 3000
27,"CS(=O)(=O)NC(=O)c1cc(Cl)c(Oc2cnc(OCCC(F)(F)F)c(Cl)c2)cc1F [Example 13, 5-Chloro-4-{[5-chloro-6-(3,3,3-trifluoropropoxy)pyridin-3-yl]oxy}-2-fluoro-N-(methylsulfonyl)benzamide]",50
28,"CS(=O)(=O)NC(=O)c1cc(F)c(Oc2ccc(Cl)c3cccnc23)cc1F [Example 87, 4-[(5-chloroquinolin-8-yl)oxy]-2,5-difluoro-N-(methylsulfonyl)benzamide]",> 3000
29,"CN1CCC(Oc2ncc(Oc3cc(F)c(C(=O)NS(C)(=O)=O)cc3Cl)cc2Cl)CC1 [Example 30, 5-chloro-4-({5-chloro-6-[(1-methylpiperidin-4-yl)oxy]pyridin-3-yl}oxy)-2-fluoro-N-(methylsulfonyl)benzamide]",7600
